Tests used:
[1] = biological target: T1, Human Whole Platelet Cyclooxygenase-1 (Homo sapiens, UniProt P23219); experiment: Human Whole Platelet Cyclooxygenase-1 assay (HWPX); type: cell-based; details: for IC50: read-out: HWPX IC50 (parenthetical value)
T1 construct: from tissue; host or cells: human blood: isolated platelets (A4) or heparinised whole blood (A9)
Method in brief: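 Washed platelets from healthy-donor ACD blood were pre-incubated with compound for 10 min, then stimulated with calcium ionophore A23187 (8.8 μM final) for 10 min. Reaction stopped with cold 6 mM EDTA; thromboxane in supernatants quantified with a commercial kit.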

[2] = test system: prostaglandin biosynthesis in vivo (pleural lavage eicosanoids); experiment: Rat carrageenan pleural inflammation (CIP) model; details: for inhibition in vivo at 10 mg/kg: 4 h, read-out: CIP % Inhib. @ 10 mpk
Experimental: (§1) For oral administration, test compounds were suspended on the day of use in 100% polyethyleneglycol (PEG 400) with a motorized homogenizer equipped with a Teflon-coated pestle (TRI-R Instrument, Jamaica, N.Y.).
(§2) To compare the mean responses of the treatment groups, analysis of variance was applied. Percent inhibition values were determined by comparing the individual treatment mean values to the mean of the control group. Linear regression was used to estimate IC50's/ED50's in appropriate assays.
Pleural inflammation was induced in male adrenalectomized Sprague-Dawley rats following the method of Vinegar et al., Fed. Proc. 1976, 35, 2447-2456. Animals were orally dosed with experimental compounds, 30 minutes prior to the intrapleural injection of 2% lambda carrageenan (Sigma Chemical Co., St. Louis Mo.). Four hours later the animals were euthanized and the pleural cavities lavaged with ice cold saline. The lavage fluid was then added to two volumes of ice cold methanol (final methanol concentration 66%) to lyse cells and precipitate protein. Eicosanoids were determined by EIA as described above.

[3] = biological target: T2, recombinant human Cox-1 (r-hu Cox1) (Homo sapiens, UniProt P23219); experiment: Recombinant human PGHS-1 enzyme assay (RHUCX1); type: biochemical; details: for inhibition at 100 µM / inhibition at 200 µM: read-out: RHUCX1 % Inh. at Dose
T2 construct: made in house; host or cells: baculovirus/Sf9 insect cells (microsomes)
T2 sequence (P23219 24-599): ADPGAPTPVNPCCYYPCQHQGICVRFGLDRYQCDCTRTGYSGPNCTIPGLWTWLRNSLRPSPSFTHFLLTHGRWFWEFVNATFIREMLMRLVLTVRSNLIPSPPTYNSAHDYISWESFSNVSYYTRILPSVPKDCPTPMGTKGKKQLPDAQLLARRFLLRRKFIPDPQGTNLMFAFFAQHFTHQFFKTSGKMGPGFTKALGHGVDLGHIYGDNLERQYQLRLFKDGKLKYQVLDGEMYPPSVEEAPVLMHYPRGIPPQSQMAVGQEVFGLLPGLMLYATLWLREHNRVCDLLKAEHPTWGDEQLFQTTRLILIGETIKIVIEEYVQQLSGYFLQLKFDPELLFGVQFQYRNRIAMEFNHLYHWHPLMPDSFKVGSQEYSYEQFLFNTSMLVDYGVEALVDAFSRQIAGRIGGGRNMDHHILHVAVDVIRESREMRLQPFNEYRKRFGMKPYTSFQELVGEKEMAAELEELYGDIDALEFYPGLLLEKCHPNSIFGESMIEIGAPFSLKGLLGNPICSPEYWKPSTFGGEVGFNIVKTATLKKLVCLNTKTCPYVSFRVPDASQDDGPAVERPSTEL
Method in brief: (§3)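 Recombinant enzyme reaction ran 2.5 minutes at room temperature, then was quenched with HCl and neutralized with NaOH. PGE2 formed with and without drug was quantified by EIA against standards in the same milieu. Percent inhibition versus control mean; IC50 by linear regression.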

[4] = biological target: T3, recombinant human Cox-2 (r-hu Cox-2) (Homo sapiens, UniProt P35354); experiment: Recombinant human PGHS-2 enzyme assay (RHUCX2); type: biochemical; details: for IC50: read-out: RHUCX2 IC50 (parenthetical value)
T3 construct: made in house; host or cells: baculovirus/Sf9 insect cells (microsomes)
T3 sequence (P35354 18-604): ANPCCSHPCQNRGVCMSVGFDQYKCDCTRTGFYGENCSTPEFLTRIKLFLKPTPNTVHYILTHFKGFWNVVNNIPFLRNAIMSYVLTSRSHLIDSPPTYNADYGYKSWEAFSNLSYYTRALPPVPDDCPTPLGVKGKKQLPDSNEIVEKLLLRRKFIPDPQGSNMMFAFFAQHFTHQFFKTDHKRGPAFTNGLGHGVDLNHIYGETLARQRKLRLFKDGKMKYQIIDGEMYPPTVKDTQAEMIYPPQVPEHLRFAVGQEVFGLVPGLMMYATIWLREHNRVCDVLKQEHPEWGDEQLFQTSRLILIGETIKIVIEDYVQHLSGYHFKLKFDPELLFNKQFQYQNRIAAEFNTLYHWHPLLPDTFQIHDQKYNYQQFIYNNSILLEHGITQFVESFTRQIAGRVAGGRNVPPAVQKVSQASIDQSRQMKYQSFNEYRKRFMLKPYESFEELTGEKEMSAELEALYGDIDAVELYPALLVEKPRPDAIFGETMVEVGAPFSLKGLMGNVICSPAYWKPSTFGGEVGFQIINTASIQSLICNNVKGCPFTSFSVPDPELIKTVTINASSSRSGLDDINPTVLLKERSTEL
Method in brief: as §3

[5] = test system: carrageenan induced paw edema; experiment: Carrageenan induced paw edema (CPE) in rats; type: in vivo; details: 10 mpk oral, rat, 3 hours after carrageenan; read-out: CPE % Inhib. @ 10 mpk
Experimental: as §1, §2
Hingpaw edema was […] in male rats as described by Winter et al., Proc. Soc. Exp. Biol. Med., 1962, 111, 544. Briefly, male Sprague-Dawley rats weighing between 170 and 190 g were administered test compounds orally 1 hour prior to the subplantar injection of 0.1 ml of 1% sodium carrageenan (lambda carrageenan, Sigma Chemical Co., St Louis, Mo.) into the right hindpaw. Right paw volumes (ml) were measured immediately following injection of carrageenan for baseline volume measurements using a Buxco plethysmograph (Buxco Electronics, Inc., Troy, N.Y.). Three hours after the injection of carrageenan, right paws were remeasured and paw edema calculated for each rat by subtracting the zero time reading from the 3 hour reading. Data are reported as mean percent inhibition +/−SEM. Statistical significance of results was analyzed by Dunnetts multiple comparison test where p<0.05 was considered statistically significant.

[6] = test system: air pouch prostaglandin biosynthesis (Cox-2); experiment: Carrageenan induced air pouch prostaglandin biosynthesis model (CAP); type: in vivo, rat; details: for inhibition in vivo at 3 mg/kg: 4 h, 3 mpk, rat, read-out: CAP % Inhib. @ 3 mpk; for ED50: Rattus norvegicus
Method in brief: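 Male Sprague Dawley rats with dorsal air pouches (20 mL air day 0, 10 mL day 3) received 0.2% lambda carrageenan in saline into the pouch on day 7. Compounds dosed at 0.1 to 10 mg/kg 30 min before carrageenan; pouch lavaged 4 h later, prostaglandins measured by EIA. Percent inhibition versus control mean; ED50 by linear regression.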

[7] = biological target: T4, human amnionic whole cell cyclooxygenase-2 (WISH cells) (Homo sapiens, UniProt P35354); experiment: IL-1β induced PGE2 production in WISH cells; type: cell-based; details: read-out: Wish IC50 (parenthetical value)
T4 construct: endogenous in cells; host or cells: human amnionic WISH cells, induced with IL-1beta
T4 sequence (P35354 18-604): T3 sequence (P35354 18-604)
Method in brief: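 Confluent (80%) WISH cells were stimulated with 5 ng/ml IL-1β in serum-free Neuman-Tytell medium, with or without test compound in DMSO (0.01% v/v). PGE2 in the culture medium was measured by EIA against standards prepared in the same medium, read by optical density.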

[8] = 0.1 μM, read-out: RHUCX2 % Inh. at Dose
[9] = 1 μM, read-out: RHUCX2 % Inh. at Dose

T1 sequence (P23219 24-599): as the sequence (P23219 24-599) above

| SMILES | IC50 [1] [nM] | melting point [°C] | inhibition at 100 µM ([3]; 100 μM) [%] | IC50 [4] [nM] | IC50 [7] [nM] | inhibition in vivo at 10 mg/kg ([2]; 10 mpk oral) [%] | inhibition in vivo at 10 mg/kg [5] [%] | inhibition in vivo at 3 mg/kg [6] [%] | further results |
| --- | --- | --- | --- | --- | --- | --- | --- | --- | --- |
| CS(=O)(=O)c1ccc(-c2cnn(Cc3ccccc3)c(=O)c2-c2ccc(F)cc2)cc1 [Example 10, 2-Benzyl-4-(4-fluorophenyl)-5-[4-(methylsulfonyl)phenyl]-3(2H)-pyridazinone] | 4100 | 101 to 103 | 2 |  |  | 44 |  |  |  |
| CS(=O)(=O)c1ccc(-c2cnn(-c3ccccc3)c(=O)c2-c2ccc(F)cc2)cc1 [Example 12, 2-Phenyl-4-(4-fluorophenyl)-5-[4-(methylsulfonyl)phenyl]-3(2H)-pyridazinone] |  | 219 to 220 | 0 |  |  | 42 | 25 |  | inhibition at 0.1 µM [4, 8]: 9%; inhibition at 1 µM [4, 9]: 77%; inhibition at 10 µM ([4]; 10 μM, read-out: RHUCX2 % Inh. at Dose): 97% |
| CS(=O)(=O)c1ccc(-c2cnn(CC(F)(F)F)c(=O)c2-c2ccc(F)cc2)cc1 [Example 34, 2-(2,2,2-Trifluoroethyl)-4-(4-fluorophenyl)-5-[4-(methylsulfonyl)-phenyl]-3(2H)-pyridazinone] |  | 177 to 179 | 16 | 920 |  | 36 | 31 |  |  |
| CS(=O)(=O)c1ccc(-c2cnn(CC(F)(F)F)c(=O)c2-c2ccc(F)c(Cl)c2)cc1 [Example 54, 2-(2,2,2-Trifluoroethyl)-4-(3-chloro-4-fluorophenyl)-5-[4-(methylsulfonyl)phenyl]-3(2H)-pyridazinone] |  | 165 to 166 | 0 |  |  | 31 | 30 |  | inhibition at 0.1 µM [4, 8]: 58%; inhibition at 1 µM [4, 9]: 95% |
| CS(=O)(=O)c1ccc(-c2cnn(-c3ccc(F)cc3)c(=O)c2-c2ccc(F)cc2)cc1 [Example 62, 2,4-Bis(4-fluorophenyl)-5-[4-(methylsulfonyl)phenyl]-3(2H)-pyridazinone] |  | 168 to 169 | 6 | 624 |  | 57 | 21 |  |  |
| CS(=O)(=O)c1ccc(-c2cnn(CC(F)(F)F)c(=O)c2-c2ccc(Cl)c(F)c2)cc1 [Example 67] |  |  |  |  |  |  |  |  | CIP % Inhib. ([2]; 3 mpk oral): 40 @ 3 mpk % |
| NS(=O)(=O)c1ccc(-c2cnn(CC(F)(F)F)c(=O)c2-c2ccc(F)cc2)cc1 [Example 68, 2-(2,2,2-Trifluoroethyl)-4-(4-fluorophenyl)-5-[4-(aminosulfonyl)phenyl]-3(2H)-pyridazinone] |  | 193 to 195 | 32 | 297 |  | 64 | 40.3 |  |  |
| CS(=O)(=O)c1ccc(-c2cnn(-c3cc(F)cc(F)c3)c(=O)c2-c2ccc(F)cc2)cc1 [Example 180] |  |  |  |  |  |  |  |  | RHUCX2 % Inh. at Dose (μM) ([4]; 0.1 μM): 48 @ 0.1%; RHUCX2 % Inh. at Dose (μM) ([4]; 1 μM): 78 @ 1%; CIP % Inhib. @ 10 mpk ([2]; 10 mpk oral): 34.5%; RHUCX1 % Inh. at Dose (μM) ([3]; 100 μM): 8 @ 100% |
| CC(C)CCOc1c(-c2ccc(S(N)(=O)=O)cc2)cnn(-c2ccc(F)c(F)c2)c1=O [Example 445, 2-(3,4-Difluorophenyl)-4-(3-methyl-1-butoxy)-5-[4-(aminosulfonyl)phenyl]-3(2H)-pyridazinone] |  | 149 to 151 |  | 69 | 25 |  | 15 | 73 | inhibition at 10 µM ([1]; 10 μM, read-out: HWPX % Inhib. at Dose): 22%; inhibition at 100 µM ([1]; 100 μM, read-out: HWPX % Inhib. at Dose): 100%; IC50 ([3]; read-out: RHUCX1 IC50 (parenthetical value)): 56600 nM |

The next lines start with results.

| IC50 [1] [nM] | melting point [°C] | inhibition at 100 µM ([3]; 100 μM) [%] | IC50 [4] [nM] | IC50 [7] [nM] | SMILES | inhibition in vivo at 10 mg/kg ([2]; 10 mpk oral) [%] | inhibition in vivo at 10 mg/kg [5] [%] | inhibition in vivo at 3 mg/kg [6] [%] | further results |
| --- | --- | --- | --- | --- | --- | --- | --- | --- | --- |
|  | 109 to 111 | 11 |  |  | CC(C)Oc1c(-c2ccc(S(C)(=O)=O)cc2)cnn(Cc2ccccc2)c1=O [Example 74, 2-Benzyl-4-(2-propoxy)-5-[4-(methylsulfonyl)phenyl]-3(2H)-pyridazinone] | 46.5 | 18 |  |  |
| 9400 | 210 to 212 | 3 | 199 | 20 | CS(=O)(=O)c1ccc(-c2cnn(-c3cccc(Br)c3)c(=O)c2-c2ccc(F)cc2)cc1 [Example 166, 2-(3-Bromophenyl)-4-(4-fluorophenyl)-5-[4-(methylsulfonyl)phenyl]-3(2H)-pyridazinone] | 40 |  | 59 |  |
| 1610 | 173 to 175 | 23 |  | 26 | CC(C)(C)COc1c(-c2ccc(S(N)(=O)=O)cc2)cnn(-c2ccc(F)c(F)c2)c1=O [Example 406, 2-(3,4-Difluorophenyl)-4-(2,2-dimethylpropoxy)-5-[4-(aminosulfonyl)phenyl]-3(2H)-pyridazinone] |  | 23 | 66.5 | inhibition at 0.01 µM ([4]; 0.01 μM, read-out: RHUCX2 % Inh. at Dose): 18%; inhibition at 0.1 µM [4, 8]: 64%; inhibition at 1 µM [4, 9]: 100% |
| 24400 | 123 to 124 |  | 373 | 20 | CC(C)(C)COc1c(-c2ccc(S(N)(=O)=O)cc2)cnn(CC(F)(F)F)c1=O [Example 446] |  | 44 | 92 | ED50 [6]: 0.5 mg/kg; inhibition at 200 µM [3]: 0% |
| 40000 | 170 to 172 |  | 129 | 89 | CC(C)COc1c(-c2ccc(S(N)(=O)=O)cc2)cnn(CC(F)(F)F)c1=O [Example 449, 2-(2,2,2-Trifluoroethyl)-4-(2-methylpropoxy)-5-[4-(aminosulfonyl)phenyl]-3(2H)-pyridazinone] |  | 23 | 76 | ED50 [6]: 1.8 mg/kg; inhibition at 200 µM [3]: 5% |
| 500 | 155 to 158 | 33 | 810 | 108 | CC(C)(O)COc1c(-c2ccc(S(N)(=O)=O)cc2)cnn(-c2ccc(F)cc2)c1=O [Example 478, 2-(4-Fluorophenyl)-4-(2-hydroxy-2-methyl-1-propoxy)-5-[4-(aminosulfonyl)phenyl]-3(2H)-pyridazinone] |  | 26 | 75 |  |
